# Reference: patent US11634366B2, “Plant growth enhancer using carbon dioxide to increase plant yield and method of increasing plant yield” (Innovations for World Nutrition, LLC, priority 2020, dated 2023)
# How the values were obtained:
# [1] = tested on: Oryza sativa long grain rice variety LaKast; assay: Example 2 carbon dioxide in air bubbled into root zone of paddy rice: roots and foliage at 24 days; assay type: in vivo; conditions: for Dry Foliage Weight: total of ten plants; for Dry Root Weight: total of ten plants of one container; for % Difference in Total Nitrogen Uptake: vs air
# Procedure: (§1) Example 2 tests were conducted to test whether carbon dioxide alone delivered to the roots of rice plants improves the rough rice yield and the root growth. For this example Oryza sativa long grain rice variety LaKast™ seed treated with CruiserMaxx® (an insecticide and fungicide) was carefully selected as representative of all rice grown commercially and provides an excellent model for testing commercial rice.
# (§2) For the Example 2 tests, carbon dioxide diluted with air in selected amounts was bubbled into the root zone of paddy rice. The rice was planted in 18.9 L (5 gallon) containers which are 30.5 cm (12 inches) in diameter and 35.6 cm (14 inches) deep, and sets of 8 containers all received the same gas mixture. The tests were designed to end after 17 weeks, but some containers were removed earlier to visually check the roots for amount of growth.
# (§3) For the Example 2 tests, the following gas mixtures were used: Air • 0.2% carbon dioxide in air • 0.5% carbon dioxide in air • 1.0% carbon dioxide in air • 2.0% carbon dioxide in air • 5.0% carbon dioxide in air • Note: 0.2% is approximately 5 times the amount of carbon dioxide currently found naturally in air
# (§4) 18.9 L (5 gallon) containers were prepared by placing an aquatic gas diffuser attached to tubing at the bottom of each container and then filling the container 10.2 cm (4 inches) from the top with sieved top soil. The containers were placed on tables in a greenhouse in groups of eight so that all received approximately the same amount of light. Each group of eight containers was attached to a tank of gas with the gas being supplied through a regulator to a flow meter and then to a set of eight valves with each one controlling the gas mixture to a single container. A total of forty-eight containers were prepared, and twenty-four containers were placed on each table. Starter phosphorus was added to the soil by mixing 1.7 g of triple super phosphate into the top 7.6 cm (3 inches) of soil in each container. Soil was also given addition starter fertilizer by dissolving 150 g of urea (for nitrogen), 132 g of potassium chloride (for potassium), and 1236 g of Epsom salts (magnesium sulfate heptahydrate for magnesium) in 12 liters of water. Each container was then given 200 mL of this solution. Later, zinc was added using zinc sulfate. The containers were flooded to 1.3 cm (0.5 inches) above the surface of the soil using collected rainwater. On May 20, 2016, the rice seed was presoaked for 24 hours and then drained for 24 hours was dropped on the surface of the soil in each container. After the rice was established, the plants were thinned to 10 plants per container. At a later date, the plants were thinned again to six plants per container. The gas mixtures to the containers were started on May 20, 2016 and adjusted to an initial flow meter setting of 42.5 liters/hr. (1.5 ft^3/hr.) with a steady flow of bubbles in each container. The flow rate was turned down to 14.2 liters/hr. (0.5 ft^3/hr.) on Jun. 14, 2016. The gas flow was supplied each weekday from 8:00 am to noon. During the testing, fans in the greenhouse created a constant airflow to prevent carbon dioxide concentration around a particular group of plants.
# On May 25, 2016, 10.6 g of zinc sulfate was dissolved in 10 L of water and each container was given 200 mL of this solution. As the plants grew, the flood waters were gradually raised until they reached a depth of three inches above the soil surface. A flood water depth of 5.1 to 7.6 cm (2 to 3 inches) was maintained for the remainder of the test. On Jun. 13, 2016, one front container (containing 10 plants each) for each level of carbon dioxide was withdrawn for measurement and the plants were gently removed and thoroughly cleaned. The plants and roots were then dried in an oven overnight at 80° C. The next day, the roots were trimmed and weighed. Table 6 presents the total root weights and total foliage weights of the ten plants for each container of plants. […]
# [2] = tested on: Oryza sativa long grain rice variety LaKast; assay: Example 2 carbon dioxide in air bubbled into root zone of paddy rice: root weights and rough rice yield at harvest; assay type: in vivo; conditions: for % Difference (root weight vs Air) / Dry Root Weight: at harvest; for Dry Root Weight: average of two containers; for Rough Rice Yield Weight: dry weight at harvest
# Procedure: as §1, §2, §3, §4
# On Jun. 20, 2016, the rice plants of Example 2 were thinned to six plants per container. On Aug. 1, 2016, additional nitrogen and triple super phosphate (TSP) was added to each container at the rate of 0.57 g TSP in all containers, 0.87 g of urea per container being fed normal air, and 2.27 g ammonium bicarbonate (equivalent nitrogen content as 0.87 g of urea) for the rest of the containers. This introduction of nitrogen and phosphates was to ensure no limitation in nitrogen and phosphorus for the plants and therefore ensure the testing validity of introducing carbon dioxide as a gas to the roots of the plants.
# The rough rice for the Example 2 tests was harvested on Sep. 19, 2016. The rough rice was separated, and dried for seven days at 40° C. […]
smiles,measurement,setting,value
"O=C=O [CO2, carbon dioxide]",% Difference of Root Weight as Compared to Air,[1]; 0.5% CO2 in air,0%
same,Total Nitrogen Uptake by Foliage,[1]; 0.5% CO2 in air,0.156 g
same,Dry Foliage Weight,[1]; 0.5% CO2 in air,3.48 g
same,Dry Root Weight,[1]; 0.5% CO2 in air,1.26 g
same,% Difference in Total Nitrogen Uptake,[1]; 0.5% CO2 in air,8.33%
same,Total Nitrogen Uptake by Foliage,[1]; 2.0% CO2 in air,0.151 g
same,Dry Foliage Weight,[1]; 2.0% CO2 in air,3.43 g
same,Dry Root Weight,[1]; 2.0% CO2 in air,2.08 g
same,% Difference in Total Nitrogen Uptake,[1]; 2.0% CO2 in air,4.86%
same,weight of the foliage compared with container receiving solely air,"[1]; each container receiving elevated carbon dioxide, in words",slightly more
same,% Difference (rough rice yield vs Air),[2]; 0.2% CO2 in air,2.9%
same,% Difference (root weight vs Air),[2]; 0.2% CO2 in air,+35.8%
same,Dry Root Weight,[2]; 0.2% CO2 in air,62.5 g
same,Rough Rice Yield Weight,[2]; 0.2% CO2 in air,91.5 g
same,% Difference (rough rice yield vs Air),[2]; 0.5% CO2 in air,6.1%
same,% Difference (root weight vs Air),[2]; 0.5% CO2 in air,+6.4%
same,Dry Root Weight,[2]; 0.5% CO2 in air,49.0 g
same,Rough Rice Yield Weight,[2]; 0.5% CO2 in air,94.3 g
same,% Difference (rough rice yield vs Air),[2]; 1.0% CO2 in air,11.9%
same,% Difference (root weight vs Air),[2]; 1.0% CO2 in air,+9.6%
same,Dry Root Weight,[2]; 1.0% CO2 in air,50.4 g
same,Rough Rice Yield Weight,[2]; 1.0% CO2 in air,99.5 g
same,% Difference (rough rice yield vs Air),[2]; 2.0% CO2 in air,11.9%
same,% Difference (root weight vs Air),[2]; 2.0% CO2 in air,+11.1%
same,Dry Root Weight,[2]; 2.0% CO2 in air,51.1 g
same,Rough Rice Yield Weight,[2]; 2.0% CO2 in air,99.5 g
same,% Difference (rough rice yield vs Air),[2]; 5.0% CO2 in air,−3.0%
same,% Difference (root weight vs Air),[2]; 5.0% CO2 in air,+20.7%
same,Dry Root Weight,[2]; 5.0% CO2 in air,55.5 g
same,Rough Rice Yield Weight,[2]; 5.0% CO2 in air,86.2 g
same,average root weights at harvest compared with plants receiving just air,"[2]; all containers receiving elevated carbon dioxide at roots, in words",higher
same,grain yields compared with plants receiving just air,"[2]; elevated carbon dioxide, with the exception of 5.0% carbon dioxide mixed with air, in words",higher
